# Measured values taken from patent US5880146A, “Inhibition of IL-12-induced IFN-γ synthesis by specific bis-phenol compounds as a method of immune modulation” (Fuji ImmunoPharmaceuticals Corporation, priority 1995, dated 1999).
# Columns and labels:
# [1] = test system: IL-12 induction of IFN-γ in PHA-activated human PBMC; experiment: Screening assay for compounds which inhibit IL-12 induction of IFN-γ (ELISA); format: cell-based; details: 5 μg/ml, IL-2 25 U/ml + IL-12 0.5 ng/ml, 48 hr, single test, read-out: % INH of IFNγ
# Protocol: Human peripheral blood monocytes (PBMC) were obtained from commercial sources as a leukophoresis from a healthy volunteer and were purified by centrifugation on a Ficoll-Hypaque (Pharmacia) gradient (1700 rpm for 20 min). The "buffy" coat containing the PBMC was diluted with serum-free culture medium (SF-RPMI) to a volume of 50 ml and collected by centrifugation at 1500 rpm for 5 min. Cells were resuspended in cell culture medium containing 10% fetal bovine serum (RPMI-10) and phytohemaglutinin (PHA - 10 μg/ml) at a density of 5×10^6 cells/ml and were cultured for 3 days at 37° C. in a humidified CO2 incubator. The PHA-activated cells were collected by centrifugation, washed three times with an equal volume of SF-RPMI and resuspended in fresh RPMI-10 (1×10^6 cells /ml). Aliquots (100 μl) were dispensed into the wells of multiple 96-well plates to give a final cell number of 10^5 per well. Test compounds, dissolved in dimethyl sulfoxide (DMSO) at 1 mg/ml, were first diluted in culture medium to an intermediate concentration of 20 μg/ml and then were added (50 μwell) to a specific well of the plate for each compound. Stimulation medium (50 μl/well) containing 10% serum, IL-2 and IL-12 was added to final concentrations of 25 U/ml and 0.5 ng/ml, respectively. Control wells receive no IL-2 or IL-12 (negative control) or received both interleukins but no test compound (positive control). The plates were incubated for 48 hr at 37° C. in a CO2 incubator at which time aliquots (20 μl) were removed for analysis of IFN-γ concentration by ELISA. A quantitative ELISA was developed by coating 96-well plates with an mouse monoclonal antibody against human IFN-γ, 1 μg/ml in phosphate buffered saline (PBS) (Pestka Biological Laboratories), overnight at 4° C. Unbound antibody was washed off by washing three times with PBS. Non-specific antibody binding was blocked with a solution of 1% bovine serum albumin (BSA) and 1% goat serum in PBS (150 μl/well) which was incubated for 2 hr at 37° C. After washing the blocked plates four times with PBS, test samples and dilutions of the IFN-γ standard are added in a final volume of 100 μl/well. Following an overnight incubation at 4° C., the plates are washed four times with PBS, and a polyclonal rabbit antiserum against human IFN-γ (1/10000 dilution--Petska Biological Laboratories) is added. After an additional incubation for 1 hr at 37° C. and four washes with PBS, a polyclonal donkey anti-rabbit detecting antibody, conjugated to horseradish peroxidase (1/700 dilution--Petska Biological Laboratories) is added for 1 hr at 37° C. The plates are then washed four times with PBS and 100 μl of K-blue substrate E(ILISA Technologies, Neogen Corp.) is added until the color in the wells containing the standard curve is sufficiently developed, at which time 100 μl of "Red-stop" solution (ELISA Technologies) is added. The absorbance of the solution within each well of the plate is then read at 650 nm using an ELISA plate reader (Dynatech MR7000). The amount of IFN-γ is calculated by comparing the optical density of the test sample with a standard curve derived from the dilutions of the control IFN-y. The amount of IFN-γ that is induced in the presence of both IL-2 and IL-12 generally ranges from 1200-2000 pg/ml while the amount produced in the absence of IL-12 is generally less than 50 pg/ml. Experimental data are shown in Table 2 which discloses a) the percent inhibition of IFNγ production, relative to a […], when the cells have been treated with a bis-compound at a final concentration of 5 μg/ml of the listed bis-compound (%INH or IFNγ) and b) the percent of cells which are viable after the treatment with 5 μg/ml of the various bis-compounds, determined by adding MTS to the media (% Viability). MTS is a chemical chromophore that is metabolized in the mitochondria of viable cells to produce a color which increases in intensity in proportion to the numbers of viable cells. […]
# [2] = Toxicity of bis-compounds after single systemic dose; format: in vivo; details: mouse, in vivo, iv, 20% DMSO, 16% cremaphor, single dose
# mice = experiment: as above; format: in vivo; details: 20% DMSO, 16% cremaphor
Structure (SMILES),inhibition at 5 µg/mL [1] [%],LD50 ([2]; conc. sol. 10 mg/ml) [mg/kg],LD50 ([2]; conc. sol. 15 mg/ml) [mg/kg],"Results (Dead/Alive) (mice; 100 mg/kg IV, 10 mg/ml)","Results (Dead/Alive) (mice; 150 mg/kg IV, 10 mg/ml)","Results (Dead/Alive) (mice; 150 mg/kg IV, 15 mg/ml)","Results (Dead/Alive) (mice; 200 mg/kg IV, 15 mg/ml)"
CCCCCCCC(c1cc(C)cc(C)c1O)c1cc(C)cc(C)c1O [Compound 51852],109,–,–,–,–,–,–
"Cc1cc(C)c(O)c(C(CC(C)CC(C)(C)C)c2cc(C)cc(C)c2O)c1 (centres unmarked) [Compound 51853, bis-1,1-[2-hydroxy-3,5-dimethylphenyl]-3,5,5-dimethyl hexan]",104,100 to 150,> 200,Alive,Dead,Alive,Alive
